Experimental findings from patent US6914160B1, “Oxytocin inhibitors” (Pfizer Inc, priority 2002, dated 2005) are described below.

In this test the target is T1, Oxytocin Receptor (Homo sapiens, UniProt P30559).
T1 construct: expressed in transfected cells; host or cells: CHO cells (membrane preparation)
T1 sequence (P30559 1-389): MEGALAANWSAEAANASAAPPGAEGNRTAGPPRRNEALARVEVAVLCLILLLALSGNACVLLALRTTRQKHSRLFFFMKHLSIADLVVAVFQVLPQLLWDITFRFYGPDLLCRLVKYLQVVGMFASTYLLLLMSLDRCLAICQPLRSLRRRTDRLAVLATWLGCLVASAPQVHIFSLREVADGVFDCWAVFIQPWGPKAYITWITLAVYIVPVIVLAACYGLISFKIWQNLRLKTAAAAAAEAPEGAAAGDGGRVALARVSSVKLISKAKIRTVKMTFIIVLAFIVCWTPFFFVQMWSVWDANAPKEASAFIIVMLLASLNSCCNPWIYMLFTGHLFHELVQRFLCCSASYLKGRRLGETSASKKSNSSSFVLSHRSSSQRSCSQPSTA
Kind of test: Oxytocin Receptor Ligand Binding IC50 Assay (125I-OVTA SPA, CHO cell membranes). The procedure:
A. Oxytocin Receptor Ligand Binding IC50 Assay
• ii) Compound Dilution (Final concentration of 10 μM in the assay) • a) HTA stock compounds at 4 mM in 100% DMSO • b) Dilute compounds to 200 μM in dH2O. • c) Further dilute compounds to 100 μM in 100 mM Tris-HCl, pH 7.8, 20 mM MgCl2. This gives final concentrations of 2.5% DMSO, 50 mM Tris-HCl, pH 7.8, 10 mM MgCl2. • d) Using the diluted stock, prepare 1:2 dilutions over 10 points in 50 mM Tris-HCl, pH 7.8, 10 mM MgCl2, 2.5% DMSO with the TECAN Genesis. • e) Dispense 10 μl of the compound into a 384 well Optiplate according to the plate layout required for analysis by ECADA leaving space for the standard (arg^8)-vasotocin IC50. […] Protein concentrations are then measured and the membrane suspension is finally frozen in aliquots at a minimum of 5 mg/ml at −80° C. vi) Assay • Membranes are thawed on ice before diluting to 1 mg/ml in assay buffer. […] A 5 μl sample is then counted in duplicate using liquid scintillation counting (protocol 61 on Wallac Counter) and the concentration of the ligand is calculated (see example below). […] Using the measured concentration, the ^125I-OVTA is diluted to 0.3 nM in assay buffer. […]

Consider `Cc1ccc(CN(C(=O)c2c(C)cc(C)nc2N)C(C(N)=O)c2ccc3c(c2)OCCO3)cc1` (centres unmarked) [Example 257, 2-Amino-N-[carbamoyl-(2,3-dihydro-benzo[1.4]dioxin-6-yl)-methyl]-4,6-dimethyl-N-(4-methyl-benzyl)-nicotinamide], for which the Ki – broadly, a dissociation constant, usually derived from enzyme kinetics or from competition with a known ligand – was found to be 9.4 nM.
Regarding `COc1cccc(C(C(N)=O)N(Cc2ccc(C)cc2)C(=O)c2c(C)cc(C)nc2N)c1` (single isomer, unassigned) [Example 258, (R or S)-2-Amino-N-[carbamoyl-[(3-methoxyphenyl)-methyl]-4,6-dimethyl-N-(4-methyl-benzyl)-nicotinamide], the affinity corresponds to a Ki of 9.4 nM.
